Measurements taken from US11466020B2, “Compounds and compositions for inhibition and elimination of Zika infection and uses for same” (Cornell University, priority 2017, dated 2022).
Counter-ions that a name gives are not always drawn.

Experiments:
ZIKV (MR766 strain) = assay: Therapeutic treatment of ZIKV (MR766 strain) infected SCID-beige mice; type: in vivo; settings: HH 100 mg/kg/day subcutaneously for 5 days from day 5 post-infection
Description: (§1) (A) Scheme of prophylactic treatment of HH in vivo. HH was administrated to SCID-Beige mice 12 h before infection with MR766 virus strain. HH was injected at a dose of 100 mg/kg/day subcutaneously and euthanized at day 7. (B) qRT-PCR analysis of total ZIKV vRNA in liver, spleen, kidney and brain of ZIKV infected mice. n=12 for liver, spleen and kidney and 20 for brain. (C) qRT-PCR analysis of total ZIKV vRNA in brains of ZIKV-infected mice treated with vehicle (n=14) or HH (n=8). […] (D-F) Immunohistochemical analysis of adult cortex. […] HH prevents infection in all cortical cells. Scale bar=100 μm in (D) and 10 μm in (E, F). (G-I) Immunohistochemical analysis of adult hippocampus. […] HH inhibits infection of all cells in the hippocampus. […] The mice were then euthanized and RNA from brains was analyzed using qRT-PCR. […] The mice were euthanized after 7 days treatment and RNA from brains was analyzed using qRT-PCR. (W, X) qRT-PCR analysis of total vRNA (W) and (−) strand RNA (X) in the brains of mice treated with vehicle (n=8) or HH (n=11) at day 7 post-infection. p values were calculated by one-way repeated measures ANOVA or two-way repeated measures ANOVA with a Bonferroni test for multiple comparisons. *p<0.05, **p<0.01 and ***p<0.001.
(§2) To evaluate the therapeutic potential of HH, we first monitored the kinetics of ZIKV infection (MR766 strain) in the adult mouse brain. […]

ZIKV (FSS13025 strain) = assay: Therapeutic treatment of ZIKV (FSS13025 strain) infected SCID-beige mice; type: in vivo; settings: HH 100 mg/kg/day subcutaneously for 7 days from day 7 post-infection
Description: as §1, §2

[1] = biological target: histamine-N-methyltransferase (Homo sapiens, UniProt P50135); settings: Horton et al. 2005; cited from earlier work
Sequence of histamine-N-methyltransferase (P50135 whole entry, species assumed): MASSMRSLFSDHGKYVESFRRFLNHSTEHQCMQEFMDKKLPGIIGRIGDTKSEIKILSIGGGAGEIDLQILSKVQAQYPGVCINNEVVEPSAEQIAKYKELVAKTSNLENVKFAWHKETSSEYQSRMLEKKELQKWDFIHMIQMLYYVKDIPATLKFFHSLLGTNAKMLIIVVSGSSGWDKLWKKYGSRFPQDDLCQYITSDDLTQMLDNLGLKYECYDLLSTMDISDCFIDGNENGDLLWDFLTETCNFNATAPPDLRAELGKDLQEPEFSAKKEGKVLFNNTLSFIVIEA

SMILES	total and replicating (-) vRNA levels in brain (ZIKV (MR766 strain))	total and replication (-) strand vRNA in mouse brain (ZIKV (FSS13025 strain))	inhibition of histamine-N-methyltransferase [1]
CN1CCC2=C[C@H](O)[C@H]3OC(=O)c4cc5c(cc4[C@H]3[C@@H]21)OCO5 [HH, hippeastrine hydrobromide]	significantly decreased	significantly decreased	
CCN(CC)Cc1cc(Nc2ccnc3cc(Cl)ccc23)ccc1O [AQ, amodiaquine dihydrochloride dihydrate]			potent inhibitor
